What was measured:
[1] = system: BL-41; assay: cells; type: functional, cell-based; details: Homo sapiens;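 also: growth inhibition of human BL-41 cells, read out with a cell viability assay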
Description: SANGER: Inhibition of human BL-41 cell growth in a cell viability assay.

[2] = system: IM-9; assay: SANGER: Inhibition of human IM-9 cell growth in a cell viability assay.; type: functional, cell-based
[3] = system: SNG-M; assay: cells; type: functional, cell-based; details: Homo sapiens
Description: SANGER: Inhibition of human SNG-M cell growth in a cell viability assay.

[4] = system: PLC-PRF-5; assay: cells; type: functional, cell-based; details: Homo sapiens;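 also: growth inhibition of human PLC-PRF-5 cells, read out with a viability assay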
Description: SANGER: Inhibition of human PLC-PRF-5 cell growth in a cell viability assay.

[5] = system: SIMA; assay: cells; type: functional, cell-based, Homo sapiens; details: Homo sapiens, SIMA;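 also: growth inhibition of SIMA cells, measured with a cell viability readout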
Description: SANGER: Inhibition of human SIMA cell growth in a cell viability assay.

[6] = system: EFE-184; assay: cells; type: functional, cell-based; details: Homo sapiens
Description: SANGER: Inhibition of human EFE-184 cell growth in a cell viability assay.

[7] = system: NCI-H1618; assay: cells; type: functional, cell-based; details: Homo sapiens;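 also: growth inhibition of human NCI-H1618 cells, measured by a cell viability assay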
Description: SANGER: Inhibition of human NCI-H1618 cell growth in a cell viability assay.

[8] = system: CAL-148; assay: cells; type: functional, cell-based; details: Homo sapiens
Description: SANGER: Inhibition of human CAL-148 cell growth in a cell viability assay.

[9] = system: NCI-H345; assay: cells; type: functional, cell-based; details: Homo sapiens;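 also: growth inhibition of NCI-H345 cells measured with a cell viability assay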
Description: SANGER: Inhibition of human NCI-H345 cell growth in a cell viability assay.

[10] = system: RT-4; assay: SANGER: Inhibition of human RT4 cell growth in a cell viability assay.; type: functional, cell-based; details: Homo sapiens, RT-4
[11] = system: Calu-1; assay: SANGER: Inhibition of human Calu-1 cell growth in a cell viability assay.; type: functional, cell-based
[12] = system: NCI-H187; assay: cells; type: functional, cell-based; details: Homo sapiens;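 also: growth inhibition of NCI-H187 cells, read out as cell viability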
Description: SANGER: Inhibition of human NCI-H187 cell growth in a cell viability assay.

[13] = system: NCI-H716; assay: cells; type: functional, cell-based; details: Homo sapiens;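 also: growth inhibition of human NCI-H716 cells, measured by a cell viability assay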
Description: SANGER: Inhibition of human NCI-H716 cell growth in a cell viability assay.

[14] = system: CHP-126; assay: cells; type: functional, cell-based; details: Homo sapiens
Description: SANGER: Inhibition of human CHP-126 cell growth in a cell viability assay.

[15] = system: LB647-SCLC; assay: cells; type: functional, cell-based; details: Homo sapiens;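 also: cell growth inhibition, read out by a viability assay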
Description: SANGER: Inhibition of human LB647-SCLC cell growth in a cell viability assay.

[16] = system: ECC12; assay: cells; type: functional, cell-based; details: Homo sapiens
Description: SANGER: Inhibition of human ECC12 cell growth in a cell viability assay.

[17] = system: NCI-H838; assay: cells; type: functional, cell-based; details: Homo sapiens;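 also: growth inhibition of human NCI-H838 cells, read out by a cell viability assay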
Description: SANGER: Inhibition of human NCI-H838 cell growth in a cell viability assay.

[18] = system: NCI-H2196; assay: cells; type: functional, cell-based; details: Homo sapiens;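 also: cell viability assay used as the readout of growth inhibition in NCI-H2196 cells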
Description: SANGER: Inhibition of human NCI-H2196 cell growth in a cell viability assay.

[19] = system: TT; assay: cells; type: functional, cell-based; details: Homo sapiens
Description: SANGER: Inhibition of human TT cell growth in a cell viability assay.

[20] = system: SK-CO-1; assay: cells; type: functional, cell-based; details: Homo sapiens;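 also: growth inhibition of SK-CO-1 cells, determined by a viability readout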
Description: SANGER: Inhibition of human SK-CO-1 cell growth in a cell viability assay.

[21] = system: PF-382; assay: cells; type: functional, cell-based; details: Homo sapiens
Description: SANGER: Inhibition of human PF-382 cell growth in a cell viability assay.

[22] = system: RL95-2; assay: cells; type: functional, cell-based; details: Homo sapiens;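 also: RL95-2 growth inhibition determined through a cell viability readout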
Description: SANGER: Inhibition of human RL95-2 cell growth in a cell viability assay.

[23] = system: SNU-C1; assay: cells; type: functional, cell-based; details: Homo sapiens;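 also: growth inhibition of SNU-C1 human cells, read out by a cell viability assay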
Description: SANGER: Inhibition of human SNU-C1 cell growth in a cell viability assay.

[24] = system: MRK-nu-1; assay: cells; type: functional, cell-based; details: Homo sapiens;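 also: cell viability assay measuring growth suppression of human MRK-nu-1 cells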
Description: SANGER: Inhibition of human MRK-nu-1 cell growth in a cell viability assay.

[25] = system: IST-SL2; assay: cells; type: functional, cell-based; details: Homo sapiens;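 also: growth inhibition of human IST-SL2 cells, read out by a cell viability assay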
Description: SANGER: Inhibition of human IST-SL2 cell growth in a cell viability assay.

[26] = system: HCT-15; assay: cells; type: functional, cell-based, Homo sapiens; details: Homo sapiens, HCT-15;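 also: cell viability readout, IC50 reflecting suppression of HCT-15 cell growth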
Description: SANGER: Inhibition of human HCT-15 cell growth in a cell viability assay.

[27] = system: Caov-3 cell line; assay: cells; type: functional, cell-based; details: Homo sapiens;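 also: cell growth inhibition read out by a viability assay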
Description: SANGER: Inhibition of human Caov-3 cell growth in a cell viability assay.

[28] = system: Kasumi 1; assay: cells; type: functional, cell-based; details: Homo sapiens;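 also: growth inhibition of human Kasumi-1 cells, read out by a cell viability assay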
Description: SANGER: Inhibition of human KASUMI-1 cell growth in a cell viability assay.

[29] = system: MFE-296; assay: SANGER: Inhibition of human MFE-296 cell growth in a cell viability assay.; type: functional, cell-based
[30] = system: L-540; assay: cells; type: functional, cell-based; details: Homo sapiens;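 also: growth inhibition of the human L-540 cell line, read out with a viability assay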
Description: SANGER: Inhibition of human L-540 cell growth in a cell viability assay.

[31] = system: YT; assay: cells; type: functional, cell-based; details: Homo sapiens
Description: SANGER: Inhibition of human YT cell growth in a cell viability assay.

[32] = system: DV-90; assay: cells; type: functional, cell-based; details: Homo sapiens;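 also: Read-out is a viability assay, with IC50 reflecting the drop in DV-90 cell growth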
Description: SANGER: Inhibition of human DV-90 cell growth in a cell viability assay.

[33] = system: COLO 205; assay: cells; type: functional, cell-based; details: Homo sapiens
Description: SANGER: Inhibition of human COLO-205 cell growth in a cell viability assay.

[34] = system: NCI-H460; assay: cells; type: functional, cell-based, Homo sapiens; details: Homo sapiens, NCI-H460;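 also: cell viability assay scoring growth inhibition of human NCI-H460 cells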
Description: SANGER: Inhibition of human NCI-H460 cell growth in a cell viability assay.

[35] = system: EHEB; assay: cells; type: functional, cell-based; details: Homo sapiens;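 also: growth inhibition of human EHEB cells, read out with a cell viability assay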
Description: SANGER: Inhibition of human EHEB cell growth in a cell viability assay.

[36] = system: ECC4; assay: cells; type: functional, cell-based; details: Homo sapiens;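 also: growth inhibition of ECC4 cells, read out with a cell viability assay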
Description: SANGER: Inhibition of human ECC4 cell growth in a cell viability assay.

[37] = system: NB1; assay: cells; type: functional, cell-based; details: Homo sapiens;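 also: reduction of NB1 cell proliferation, read out with a viability assay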
Description: SANGER: Inhibition of human NB1 cell growth in a cell viability assay.

[38] = system: NCI-H322M; assay: cells; type: functional, cell-based; details: Homo sapiens;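 also: cell viability assay measuring inhibition of growth of human NCI-H322M cells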
Description: SANGER: Inhibition of human NCI-H322M cell growth in a cell viability assay.

[39] = system: IPC-298; assay: SANGER: Inhibition of human IPC-298 cell growth in a cell viability assay.; type: functional, cell-based
[40] = system: UACC-812; assay: cells; type: functional, cell-based; details: Homo sapiens
Description: SANGER: Inhibition of human UACC-812 cell growth in a cell viability assay.

[41] = system: IMR-5; assay: cells; type: functional, cell-based; details: Homo sapiens;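 also: growth inhibition of human IMR-5 cells, read out with a cell viability assay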
Description: SANGER: Inhibition of human IMR-5 cell growth in a cell viability assay.

[42] = system: NCI-H1963; assay: cells; type: functional, cell-based; details: Homo sapiens
Description: SANGER: Inhibition of human NCI-H1963 cell growth in a cell viability assay.

[43] = system: EVSA-T; assay: cells; type: functional, cell-based, Homo sapiens; details: Homo sapiens, EVSA-T;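 also: growth inhibition of EVSA-T cells, read out with a cell viability assay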
Description: SANGER: Inhibition of human EVSA-T cell growth in a cell viability assay.

[44] = system: SNU-475; assay: cells; type: functional, cell-based; details: Homo sapiens
Description: SANGER: Inhibition of human SNU-475 cell growth in a cell viability assay.

[45] = system: HCC1143; assay: cells; type: functional, cell-based; details: Homo sapiens;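 also: growth inhibition of human HCC1143 cells, read out with a cell viability assay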
Description: SANGER: Inhibition of human HCC1143 cell growth in a cell viability assay.

[46] = system: MDA-MB-468; assay: cells; type: functional, cell-based; details: Homo sapiens
Description: SANGER: Inhibition of human MDA-MB-468 cell growth in a cell viability assay.

[47] = system: CCF-STTG1; assay: cells; type: functional, cell-based; details: Homo sapiens;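 also: growth inhibition of human CCF-STTG1 cells, determined with a cell viability read-out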
Description: SANGER: Inhibition of human CCF-STTG1 cell growth in a cell viability assay.

[48] = system: NCI-H2227; assay: cells; type: functional, cell-based; details: Homo sapiens;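 also: growth inhibition of the human cell line, read out with a cell viability assay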
Description: SANGER: Inhibition of human NCI-H2227 cell growth in a cell viability assay.

[49] = system: TE-15; assay: cells; type: functional, cell-based; details: Homo sapiens;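 also: cell viability readout of growth inhibition in TE-15 cells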
Description: SANGER: Inhibition of human TE-15 cell growth in a cell viability assay.

[50] = system: CA46; assay: cells; type: functional, cell-based; details: Homo sapiens;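 also: growth inhibition of human CA46 cells, read out by a cell viability assay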
Description: SANGER: Inhibition of human CA46 cell growth in a cell viability assay.

[51] = system: OPM-2; assay: cells; type: functional, cell-based; details: Homo sapiens;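 also: growth of OPM-2 cells measured with a viability assay, IC50 for suppression of proliferation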
Description: SANGER: Inhibition of human OPM-2 cell growth in a cell viability assay.

[52] = system: BC1 cell line; assay: SANGER: Inhibition of human BC-1 cell growth in a cell viability assay.; type: functional, cell-based

`COC(=O)CNC(=O)C(=O)OC` was tested, and the IC50 [1] was 54.9 µM, the IC50 [2] was > 4 mM and the IC50 [3] was > 4000 µM. For the same molecule, the IC50 [4] was 1.19 mM, the IC50 [5] was 846 µM and the IC50 [6] was 553 µM. For the same molecule, the IC50 [7] was > 4 mM, the IC50 [8] was > 4000 µM and the IC50 [9] was 648 µM. The IC50 [10] was 649 µM, the IC50 [11] was 896 µM and the IC50 [12] was 595 µM. It also gave an IC50 [13] of 1.74 mM, an IC50 [14] of 3.5 mM and an IC50 [15] of 3.53 mM. It also gave an IC50 [16] of 1800 µM, an IC50 [17] of 1.34 mM and an IC50 [18] of 2.96 mM. For the same molecule, the IC50 [19] was 538 µM, the IC50 [20] was > 4000 µM and the IC50 [21] was 85.4 µM. For the same molecule, the IC50 [22] was 3.59 mM, the IC50 [23] was 2.1 mM and the IC50 [24] was 1800 µM. For the same molecule, the IC50 [25] was 157 µM, the IC50 [26] was 1820 µM and the IC50 [27] was 1.08 mM. The IC50 [28] was 122 µM, the IC50 [29] was 318 µM and the IC50 [30] was 239 µM. For the same molecule, the IC50 [31] was 23.4 µM, the IC50 [32] was > 4 mM and the IC50 [33] was > 4000 µM. For the same molecule, the IC50 [34] was 159 µM, the IC50 [35] was 271 µM and the IC50 [36] was 3.58 mM. The IC50 [37] was 210 µM, the IC50 [38] was > 4 mM and the IC50 [39] was 1670 µM. For the same molecule, the IC50 [40] was 3.01 mM, the IC50 [41] was 254 µM and the IC50 [42] was 1030 µM. For the same molecule, the IC50 [43] was > 4 mM, the IC50 [44] was 2.58 mM and the IC50 [45] was > 4 mM. For the same molecule, the IC50 [46] was > 4000 µM, the IC50 [47] was > 4000 µM and the IC50 [48] was 3.06 mM. For the same molecule, the IC50 [49] was 218 µM, the IC50 [50] was 96 µM and the IC50 [51] was 28.8 µM. The IC50 [52] was 86.1 µM.

With `COc1cc([C@@H]2c3cc4c(cc3[C@@H](O[C@@H]3O[C@@H]5CO[C@@H](C)O[C@H]5[C@H](O)[C@H]3O)[C@H]3COC(=O)[C@H]23)OCO4)cc(OC)c1O` [ETOPOSIDE] the IC50 [1] was 2.08 µM, the IC50 [2] was > 0.016 mM and the IC50 [3] was 1.16 µM. The IC50 [4] was > 0.016 mM, the IC50 [5] was 8.85 µM and the IC50 [6] was > 16 µM. For the same molecule, the IC50 [7] was > 0.016 mM, the IC50 [8] was 0.625 µM and the IC50 [9] was > 16 µM. The IC50 [10] was > 16 µM, the IC50 [11] was 7.89 µM and the IC50 [12] was 0.674 µM. For the same molecule, the IC50 [13] was > 0.016 mM, the IC50 [14] was 0.00627 mM and the IC50 [15] was 0.002 mM. The IC50 [16] was 0.954 µM, the IC50 [17] was > 0.016 mM and the IC50 [18] was 0.00749 mM. The IC50 [19] was > 16 µM, the IC50 [20] was 1.63 µM and the IC50 [21] was 0.724 µM. For the same molecule, the IC50 [22] was 0.00111 mM, the IC50 [23] was > 0.016 mM and the IC50 [24] was 0.116 µM. The IC50 [25] was 0.85 µM, the IC50 [26] was 7.87 µM and the IC50 [27] was > 0.016 mM. It also gave an IC50 [28] of 1.32 µM, an IC50 [29] of 0.763 µM and an IC50 [30] of 1.06 µM. The IC50 [31] was > 16 µM, the IC50 [32] was > 0.016 mM and the IC50 [33] was 0.265 µM. For the same molecule, the IC50 [34] was 0.236 µM, the IC50 [35] was > 16 µM and the IC50 [36] was > 0.016 mM. For the same molecule, the IC50 [37] was 10.2 µM, the IC50 [38] was > 0.016 mM and the IC50 [39] was 4.33 µM. The IC50 [40] was > 0.016 mM, the IC50 [41] was 0.469 µM and the IC50 [42] was 12.1 µM. The IC50 [43] was > 0.016 mM, the IC50 [44] was > 0.016 mM and the IC50 [45] was > 0.016 mM. The IC50 [46] was 1.47 µM, the IC50 [47] was 6.91 µM and the IC50 [48] was > 0.016 mM. For the same molecule, the IC50 [49] was 0.96 µM, the IC50 [50] was > 16 µM and the IC50 [51] was > 16 µM. The IC50 [52] was 0.545 µM.

Source: ChEMBL document CHEMBL1201861, “Genomics of Drug Sensitity in Cancer screening data, Wellcome Trust Sanger Institute”
